According to US4015017A, “Certain biphenyl derivatives used to treat disorders caused by increased capillary permeability” (Laboratoires Pharmascience, priority 1974, dated 1977):
Where two headings read alike, the source gives them in different places.

Assays:
[1] = system: guinea pig; assay: Capillary resistance on the guinea pig (technique of Parrot and Canu); type: in vivo
Description: Experiments on capillary resistance on the guinea pig using the technique of J-L. Parrot and P. Canu, 1964, Arch. […] (By comparison trioxyethylrutine gives an increase of 13%).

[2] = system: mice; assay: Anti-inflammation effect on vessels using croton oil on mice (technique of Bounameaux and Lecomto); type: in vivo
Description: Some of the compounds of the formula I have other interesting properties. Thus the anti-inflammation effect on vessels evaluated according to the technique of Y. Bounameaux and J. Lecomto, 1955, C.R. Soc.

[3] = biological target: T1, catechol-O-methyltransferase (Rattus norvegicus, UniProt P22734); assay: Protection of the catecholamines: incubation of catechol-O-methyltransferase with adrenalin and orthodiphenol (method of Axelrod); type: biochemical; details: stoichiometric amounts of adrenalin and orthodiphenol, after 30 minutes
T1 sequence (P22734 1-221 isoform P22734-2): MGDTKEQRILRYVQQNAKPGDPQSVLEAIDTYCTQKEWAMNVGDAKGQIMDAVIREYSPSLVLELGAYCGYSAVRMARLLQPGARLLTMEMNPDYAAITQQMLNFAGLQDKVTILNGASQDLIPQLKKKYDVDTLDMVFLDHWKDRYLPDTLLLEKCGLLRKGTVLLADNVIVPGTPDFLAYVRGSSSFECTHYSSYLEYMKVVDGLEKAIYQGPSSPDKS
Description: Whether administered orally or parenterally they undergo in the organism a monomethylation on one of the two hydroxyl groups, as do all orthodiphenols, (J. Axelrod and M. J. Laroche, 1959, Science, 130, p 800). This monomethylation is due to the action of the catechol-O-methyltransferases (C.O.M.T.), S-adenosyl-L-methionine providing the methyl radicals (J. Axelrod and R. Tomchick, 1958, J. Biol. Chem. 233 p.702). This methylation occurs in the physiological catecholamines, for example, adrenalin, as well as in the synthetic orthodiphenols.
As methylation is a first stage in the destructive pathway, this competition serves to protect the natural catecholamines from early destruction, (J. M. Gazave, P. Canu, M. Baques, and F. Martin, 1971, Biochem and Experim. Biol., X p.89).
Using the techniques of Axelrod et al (op.cit.) it is possible to quantify this effect for various compounds, as the intensity of the effect varies, being dependent on the chemical composition and physical properties, especially the solubility of the compound.
By incubating a catechol-O-methyltransferase with stoichiometric amounts of adrenalin and an orthodiphenol according to the method of Axelrod, determining the quantity of adrenalin protected ie. non-methylated after 30 minutes the extent of the protection given by the product studied can be evaluated.

[4] = in vivo; details: rat, ip, acute toxicity, intraperitoneal administration, rats, read-out: DL50 A. IP
[5] = system: rats; assay: Research into the methemoglobinising properties (spectrophotometric technique of Evelyn and Malby); type: in vivo; details: rats treated for 75 days at 0.20 g per kg body weight per day
Description: Certain phenols, in particular pyrocatechol (1,2-dihydroxybenzene) and pyrogallol (1,2,3-trihydroxybenzene), when administered either orally or parenterally to an organism bring about a transformation of the oxyhaemoglobin of the blood to methemoglobin. In oxyhaemoglobin, the iron is in the ferrous state (Fe^+^+) and can transport oxygen; whereas in methemoglobin, the iron is in the ferric state (Fe ^+^+^+) and is unsuitable for transporting oxygen.
It therefore appeared necessary to try to discover if the polyhydroxy compounds used in the preparations of the present invention, in particular 2,3,3',4,4',5'-hexahydroxy benzophenone, would also act as methemoglobinising agents.
This study was carried out using pyrogallol as the comparative substance and the spectrophotometric technique of Evelyn and Malby, (in R. Lecoq, 1972, Analyses Medicales, 2, p.1699): […]

[6] = in vivo; details: rat, acute toxicity, oral administration, rats, read-out: DL 50 A.O

Compound | protection of adrenalin (non-methylated) [3] [%] | increase in the capillary resistance [1] [%] | other results
O=C(c1ccc(O)c(O)c1)c1cccc(O)c1O [2,3,3',4'-Tetrahydroxybenzophenone, 2,3,3',4'-tetrahydroxybenzophenone] | ≥ 90 | 56 | anti-inflammation effect on vessels [2]: anti-inflammatory properties
O=C(c1cc(O)c(O)c(O)c1)c1ccc(O)c(O)c1O [2,3,3',4,4',5'-Hexahydroxybenzophenone, 2,3,3',4,4',5'-hexahydroxybenzophenone] | 100 | 82 | LD50 [4]: 355 mg/kg; methemoglobin in the blood [5]: no methemoglobin could be detected; LD50 [6]: 1420 mg/kg
O=C(c1ccc(O)c(O)c1)c1ccc(O)c(O)c1O [2,3,3',4,4'-pentahydroxybenzophenone] | 100 |  | 
O=C(c1ccc(O)c(O)c1)c1cc(O)c(O)c(O)c1 [3,3',4,4' ,5'-pentahydroxybenzophenone, 3,3',4,4',5'-pentahydroxybenzophenone] | 100 |  | anti-inflammation effect on vessels [2]: anti-inflammatory properties
O=C(C(=O)c1ccc(O)c(O)c1)c1ccc(O)c(O)c1 [3,3',4,4'-tetrahydroxybenzile, 3,3',4,4'-tetrahydroxybenzil] | 100 |  | 
C[C@@H]1O[C@@H](OC[C@H]2O[C@@H](Oc3c(-c4ccc(OCCO)c(OCCO)c4)oc4cc(OCCO)cc(O)c4c3=O)[C@H](O)[C@@H](O)[C@@H]2O)[C@H](O)[C@H](O)[C@H]1O [trioxyethylrutine, reference compound] |  | 13 | 
O=C(Cc1ccc(O)c(O)c1)c1ccc(O)c(O)c1O [β-(3,4-dihydroxyphenyl)-2,3,4-trihydroxyacetophenone] |  | 34 | LD50 [4]: 730 mg/kg; LD50 [6]: 2000 mg/kg

Continued, in another order:

protection of adrenalin (non-methylated) [3] [%] | Compound | increase in the capillary resistance [1] [%] | other results
100 | O=C(c1ccc(O)c(O)c1)c1ccc(O)c(O)c1 [3,3',4,4'-tetrahydroxybenzophenone] |  | 
≥ 90 | Oc1ccc(Cc2ccc(O)c(O)c2)cc1O [di-(3,4-dihydroxyphenyl) methane, di-(3,4-dihydroxyphenyl)-methane] |  | 
≥ 90 | O=C(Cc1ccc(O)c(O)c1)c1ccc(O)c(O)c1 [β-(3,4-dihydroxyphenyl)-3,4-dihydroxyacetophenone] |  | 
